Tests used:
rice = assay: Test B flood test rice; format: in vivo, Oryza sativa
How it was run: (§1)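 Plants were grown to the 2-leaf stage before treatment with test chemical, then held in a greenhouse for twelve to sixteen days. Injury was visually rated against untreated controls on a 0–10 scale, where 0 is no effect and 10 is complete control.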

wheat = assay: Test B pre/postemergence wheat; format: in vivo, Triticum aestivum; conditions: for Plant response rating, Wheat: Rate 250 g/ha
How it was run: (§2)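 Response is a visual 0-to-10 score relative to untreated plants, where 0 means no effect and 10 means complete control, taken twelve to sixteen days after application. Treatments went onto soil at planting and onto foliage of 1- to 4-leaf plants, using a surfactant-containing non-phytotoxic solvent.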

bamyardgrass = assay: Test B flood test barnyardgrass; format: in vivo, Echinochloa crus-galli
How it was run: as §1

pigweed = assay: Test B pre/postemergence pigweed; format: in vivo, Amaranthus retroflexus
How it was run: as §2

purple nutsedge = assay: Test B pre/postemergence purple nutsedge; format: in vivo, Cyperus rotundus
How it was run: as §2

cocklebur = assay: Test B pre/postemergence cocklebur; format: in vivo, Xanthium strumarium
How it was run: as §2

giant foxtail = assay: Test B pre/postemergence giant foxtail; format: in vivo, Setaria faberii
How it was run: as §2

corn = assay: Test B pre/postemergence corn; format: in vivo, Zea mays
How it was run: as §2

morningglory = assay: Test B pre/postemergence morningglory; format: in vivo, Ipomoea hederacea
How it was run: as §2

sugar beet = assay: Test B pre/postemergence sugar beet; format: in vivo, Beta vulgaris; conditions: for Plant response rating, Sugarbeets: Rate 250 g/ha
How it was run: as §2

smallflower flatsedge = assay: Test B flood test smallflower flatsedge; format: in vivo, Cyperus difformis
How it was run: as §1

duck salad = assay: Test B flood test duck salad; format: in vivo, Heteranthera limosa
How it was run: as §1

surinam grass = assay: Test B pre/postemergence surinam grass; format: in vivo, Brachiaria decumbens
How it was run: as §2

crabgrass = assay: Test B pre/postemergence crabgrass; format: in vivo, Digitaria sanguinalis
How it was run: as §2

rape = assay: Test B pre/postemergence rape; format: in vivo, Brassica napus
How it was run: as §2

wild oat = assay: Test B pre/postemergence wild oat; format: in vivo, Avena fatua; conditions: for Plant response rating, Wild oats: Rate 250 g/ha
How it was run: as §2

[1] = Postemergence (flood test species), Rate 125 g/ha, scale of 0 to 10 where 0 is no effect and 10 is complete control
[2] = Postemergence, Rate 62 g/ha, scale 0 to 10, 0 is no effect, 10 is complete control
[3] = Rate 250 g/ha, Postemergence (flood test), scale 0 to 10, 0 is no effect, 10 is complete control
[4] = Rate 500 g/ha, listed under Postemergence (flood test species), scale 0 to 10, 0 no effect, 10 complete control
[5] = Postemergence, Rate 125 g/ha, scale of 0 to 10 where 0 is no effect and 10 is complete control
[6] = Preemergence, Rate 62 g/ha, scale 0 to 10 (0 no effect, 10 complete control)
[7] = Preemergence, Rate 125 g/ha, 0 is no effect, 10 is complete control
[8] = Preemergence, scale of 0 to 10 where 0 is no effect and 10 is complete control
[9] = Preemergence, Rate 500 g/ha, scale 0 (no effect) to 10 (complete control)
[10] = Postemergence, scale 0 to 10, 0 is no effect, 10 is complete control
[11] = Rate 500 g/ha, Postemergence, scale 0 to 10, 0 no effect, 10 complete control
[12] = flood test, listed under Postemergence, Rate 250 g/ha, scale 0 to 10, 0 no effect, 10 complete control
[13] = Preemergence, Rate 250 g/ha, scale of 0 to 10 where 0 is no effect and 10 is complete control
[14] = Postemergence, Rate 250 g/ha, scale 0 to 10, 0 no effect, 10 complete control
[15] = Preemergence, Rate 125 g/ha, scale 0 to 10 (0 no effect, 10 complete control)

CC(C)N(C(=O)n1oc(=O)n(-c2cnn(C)c2Cl)c1=O)c1ccc(F)cc1 [Compound 97]
Rice plant response rating (rice; [1]): 0 | Rice plant response rating (rice; [2]): 0 | Plant response rating, Rice (rice; [3]): 0 | Rice plant response rating (rice; [4]): 3 | Wheat plant response rating (wheat; [2]): 0 | Wheat plant response rating (wheat; [5]): 0 | Wheat plant response rating (wheat; [6]): 0 | Wheat plant response rating (0 to 10 scale) (wheat; [7]): 0 | Plant response rating, Wheat (wheat; [8]): 0 | Wheat plant response rating (wheat; [9]): 2 | Plant response rating, Wheat (wheat; [10]): 0 | Wheat plant response rating (wheat; [11]): 0 | Barnyardgrass plant response rating (bamyardgrass; [2]): 0 | Barnyardgrass plant response rating (bamyardgrass; Rate 125 g/ha, Postemergence section (flood test species), scale 0 to 10, 0 no effect, 10 complete control): 0 | Barnyardgrass plant response rating (bamyardgrass; [4]): 0 | Barnyardgrass plant response rating (bamyardgrass; [12]): 0 | Redroot pigweed plant response rating (pigweed; [2]): 0 | Redroot pigweed plant response rating (pigweed; [5]): 0 | Redroot pigweed plant response rating (pigweed; [6]): 0 | Plant response rating, Redroot pigweed (pigweed; [13]): 4 | Redroot pigweed plant response rating (pigweed; [9]): 10 | Redroot pigweed plant response rating (pigweed; [11]): 5 | Nutsedge plant response rating (purple nutsedge; [2]): 0 | Nutsedge plant response rating (purple nutsedge; [5]): 0 | Nutsedge plant response rating (purple nutsedge; [14]): 0 | Nutsedge plant response rating (purple nutsedge; [6]): 0 | Plant response rating, Nutsedge (purple nutsedge; [15]): 0 | Plant response rating, Nutsedge (purple nutsedge; [13]): 0 | Nutsedge plant response rating (purple nutsedge; [9]): 0 | Nutsedge plant response rating (purple nutsedge; [11]): 0 | Cocklebur plant response rating (cocklebur; [2]): 0 | Cocklebur plant response rating (cocklebur; [5]): 0 | Cocklebur plant response rating (cocklebur; [14]): 1 | Cocklebur plant response rating (cocklebur; [6]): 0 | Plant response rating, Cocklebur (cocklebur; [15]): 0 | Plant response rating, Cocklebur (cocklebur; [13]): 0 | Cocklebur plant response rating (cocklebur; [9]): 0 | Cocklebur plant response rating (cocklebur; [11]): 1 | Giant foxtail plant response rating (giant foxtail; [2]): 0 | Giant foxtail plant response rating (giant foxtail; [5]): 0 | Giant foxtail plant response rating (giant foxtail; [14]): 3 | Giant foxtail plant response rating (giant foxtail; [6]): 0 | Plant response rating, Giant foxtail (giant foxtail; [15]): 3 | Plant response rating, Giant foxtail (giant foxtail; [13]): 4 | Giant foxtail plant response rating (giant foxtail; [9]): 8 | Giant foxtail plant response rating (giant foxtail; [11]): 4 | Corn plant response rating (corn; [2]): 0 | Corn plant response rating (corn; [5]): 0 | Corn plant response rating (corn; [14]): 0 | Corn plant response rating (corn; [6]): 0 | Plant response rating, Corn (corn; [15]): 0 | Plant response rating, Corn (corn; [13]): 0 | Corn plant response rating (corn; [9]): 0 | Corn plant response rating (corn; [11]): 0 | Morningglory plant response rating (morningglory; [2]): 1 | Morningglory plant response rating (morningglory; [5]): 1 | Morningglory plant response rating (morningglory; [14]): 3 | Morningglory plant response rating (morningglory; [6]): 0 | Plant response rating, Morningglory (morningglory; [15]): 0 | Plant response rating, Morningglory (morningglory; [13]): 0 | Morningglory plant response rating (morningglory; [9]): 0 | Morningglory plant response rating (morningglory; [11]): 3 | Sugarbeets plant response rating (sugar beet; [2]): 0 | Sugarbeets plant response rating (sugar beet; [5]): 0 | Sugarbeets plant response rating (sugar beet; [6]): 0 | Sugarbeets plant response rating (0 to 10 scale) (sugar beet; [7]): 3 | Plant response rating, Sugarbeets (sugar beet; [8]): 5 | Sugarbeets plant response rating (sugar beet; [9]): 9 | Plant response rating, Sugarbeets (sugar beet; [10]): 0 | Sugarbeets plant response rating (sugar beet; [11]): 0 | S. Flatsedge plant response rating (smallflower flatsedge; [1]): 0 | S. Flatsedge plant response rating (smallflower flatsedge; [2]): 0 | Plant response rating, S. Flatsedge (smallflower flatsedge; [3]): 0 | S. Flatsedge plant response rating (smallflower flatsedge; [4]): 2 | Ducksalad plant response rating (duck salad; [1]): 0 | Ducksalad plant response rating (duck salad; [2]): 0 | Ducksalad plant response rating (duck salad; [4]): 2 | Ducksalad plant response rating (duck salad; [12]): 2 | B. signalgrass plant response rating (surinam grass; [2]): 0 | B. signalgrass plant response rating (surinam grass; [14]): 0 | B. signalgrass plant response rating (surinam grass; [6]): 0 | Plant response rating, B. signalgrass (surinam grass; [15]): 2 | Plant response rating, B. signalgrass (surinam grass; [13]): 3 | B. signalgrass plant response rating (surinam grass; [9]): 4 | B. signalgrass plant response rating (surinam grass; Rate 125 g/ha, Postemergence, scale 0 to 10, 0 no effect, 10 complete control): 0 | B. signalgrass plant response rating (surinam grass; Rate 500 g/ha, Postemergence, scale of 0 to 10 where 0 is no effect and 10 is complete control): 0 | Crabgrass plant response rating (crabgrass; [2]): 0 | Crabgrass plant response rating (crabgrass; [5]): 2 | Crabgrass plant response rating (crabgrass; [14]): 4 | Crabgrass plant response rating (crabgrass; [6]): 0 | Plant response rating, Crabgrass (crabgrass; [15]): 0 | Plant response rating, Crabgrass (crabgrass; [13]): 1 | Crabgrass plant response rating (crabgrass; [9]): 4 | Rape plant response rating (rape; [2]): 0 | Rape plant response rating (rape; [5]): 0 | Rape plant response rating (rape; [14]): 0 | Rape plant response rating (rape; [6]): 0 | Plant response rating, Rape (rape; [15]): 0 | Plant response rating, Rape (rape; [13]): 5 | Rape plant response rating (rape; [9]): 6 | Rape plant response rating (rape; [11]): 3 | Wild oats plant response rating (wild oat; [2]): 0 | Wild oats plant response rating (wild oat; [5]): 0 | Wild oats plant response rating (wild oat; [6]): 0 | Wild oats plant response rating (0 to 10 scale) (wild oat; [7]): 2 | Plant response rating, Wild oats (wild oat; [8]): 2 | Wild oats plant response rating (wild oat; [9]): 5 | Plant response rating, Wild oats (wild oat; [10]): 0 | Wild oats plant response rating (wild oat; [11]): 0

Source: patent publication US6737383B1, “Herbicidal oxadiazolidines” (priority 1999, dated 2004)
